Laboratory results as given in the NIST ThermoML archive (doi:10.1016/j.tca.2008.05.004).
“And” between values parts separate entries of the source, which are not always exact repeats. Identical values can stand only once. ± gives the expanded uncertainty stated by the source.

Test: molar heat capacity at constant pressure
Settings: 101.33 kPa, Crystal, Small (less than 1 g) adiabatic calorimetry

O=P([O-])([O-])[O-].[La+3] [lanthanum orthophosphate]
Settings	molar heat capacity at constant pressure
2 K	0.00122 J/K/mol
4 K	0.01153 ± 0.02 J/K/mol
6 K	0.03674 ± 0.021 J/K/mol
8 K	0.08437 ± 0.021 J/K/mol
10 K	0.1669 ± 0.023 J/K/mol
12 K	0.2994 ± 0.025 J/K/mol
14 K	0.4971 ± 0.027 J/K/mol
16 K	0.7738 ± 0.031 J/K/mol
18 K	1.141 ± 0.035 J/K/mol
20 K	1.605 ± 0.04 J/K/mol
25 K	3.201 ± 0.053 J/K/mol
25.03 K	3.418 ± 0.055 J/K/mol
25.8 K	3.691 ± 0.056 J/K/mol
26.57 K	3.997 ± 0.058 J/K/mol
27.34 K	4.269 ± 0.059 J/K/mol
28.12 K	4.62 ± 0.061 J/K/mol
28.89 K	4.94 ± 0.062 J/K/mol
29.68 K	5.294 ± 0.064 J/K/mol
30 K	5.306 ± 0.13 J/K/mol
30.46 K	5.695 ± 0.13 J/K/mol
31.24 K	6.098 ± 0.13 J/K/mol
32.03 K	6.511 ± 0.13 J/K/mol
32.86 K	6.925 ± 0.14 J/K/mol
33.65 K	7.346 ± 0.14 J/K/mol
34.44 K	7.659 ± 0.14 J/K/mol
35 K	7.89 ± 0.14 J/K/mol
35.24 K	8.049 ± 0.14 J/K/mol
36.04 K	8.576 ± 0.14 J/K/mol
36.84 K	9.023 ± 0.15 J/K/mol
37.64 K	9.523 ± 0.15 J/K/mol
38.44 K	9.994 ± 0.15 J/K/mol
39.25 K	10.48 ± 0.15 J/K/mol
40 K	10.82 ± 0.15 J/K/mol
40.05 K	10.95 ± 0.16 J/K/mol
40.86 K	11.44 ± 0.16 J/K/mol
41.67 K	11.92 ± 0.16 J/K/mol
42.48 K	12.4 ± 0.16 J/K/mol
43.29 K	12.88 ± 0.16 J/K/mol
44.1 K	13.34 ± 0.17 J/K/mol
44.92 K	13.87 ± 0.17 J/K/mol
45 K	13.97 ± 0.17 J/K/mol
45.76 K	14.39 ± 0.17 J/K/mol
48.2 K	16.03 ± 0.18 J/K/mol
49.02 K	16.52 ± 0.18 J/K/mol
49.84 K	17.11 ± 0.19 J/K/mol
50 K	17.23 ± 0.19 J/K/mol
50.65 K	17.64 ± 0.19 J/K/mol
51.47 K	18.19 ± 0.19 J/K/mol
52.29 K	18.72 ± 0.19 J/K/mol
53.11 K	19.27 ± 0.2 J/K/mol
53.93 K	19.79 ± 0.2 J/K/mol
54.75 K	20.27 ± 0.2 J/K/mol
55.57 K	20.78 ± 0.2 J/K/mol
56.4 K	21.36 ± 0.21 J/K/mol
57.22 K	21.86 ± 0.21 J/K/mol
58.04 K	22.41 ± 0.21 J/K/mol
58.89 K	22.97 ± 0.22 J/K/mol
59.72 K	23.49 ± 0.22 J/K/mol
60 K	23.73 ± 0.22 J/K/mol
60.54 K	24.01 ± 0.22 J/K/mol
61.37 K	24.55 ± 0.22 J/K/mol
62.2 K	25.1 ± 0.23 J/K/mol
63.03 K	25.6 ± 0.23 J/K/mol
63.86 K	26.14 ± 0.23 J/K/mol
64.69 K	26.66 ± 0.23 J/K/mol
65.52 K	27.24 ± 0.24 J/K/mol
66.35 K	27.76 ± 0.24 J/K/mol
67.19 K	28.22 ± 0.24 J/K/mol
68.02 K	28.62 ± 0.24 J/K/mol
68.86 K	29.07 ± 0.25 J/K/mol
69.7 K	29.48 ± 0.25 J/K/mol
70 K	29.93 ± 0.25 J/K/mol
70.93 K	30.26 ± 0.25 J/K/mol
72.58 K	31.21 ± 0.26 J/K/mol
73.58 K	31.56 ± 0.26 J/K/mol
74.82 K	32.17 ± 0.26 J/K/mol
76.07 K	33.31 ± 0.27 J/K/mol
77.32 K	33.78 ± 0.27 J/K/mol
78.55 K	34.74 ± 0.27 J/K/mol
80 K	35.68 ± 0.28 J/K/mol
80.58 K	36.06 ± 0.28 J/K/mol
82.23 K	36.9 ± 0.28 J/K/mol
83.88 K	37.58 ± 0.29 J/K/mol
85.53 K	38.39 ± 0.29 J/K/mol
87.18 K	39.57 ± 0.3 J/K/mol
88.83 K	40.58 ± 0.3 J/K/mol
90 K	40.96 ± 0.36 J/K/mol
90.48 K	41.33 ± 0.37 J/K/mol
92.13 K	42.17 ± 0.37 J/K/mol
93.78 K	42.97 ± 0.37 J/K/mol
95.43 K	43.79 ± 0.38 J/K/mol
97.08 K	44.53 ± 0.38 J/K/mol
100 K	45.82 ± 0.38 J/K/mol
101.86 K	46.91 ± 0.39 J/K/mol
102.42 K	47.17 ± 0.39 J/K/mol
104.27 K	47.95 ± 0.39 J/K/mol
104.88 K	48.25 ± 0.39 J/K/mol
106.71 K	49.05 ± 0.4 J/K/mol
107.34 K	49.42 ± 0.4 J/K/mol
109.16 K	50.14 ± 0.4 J/K/mol
109.8 K	50.46 ± 0.4 J/K/mol
110 K	50.3 ± 0.4 J/K/mol
111.6 K	51.16 ± 0.4 J/K/mol
112.25 K	51.55 ± 0.41 J/K/mol
114.04 K	52.08 ± 0.41 J/K/mol
114.7 K	52.52 ± 0.41 J/K/mol
116.47 K	53.12 ± 0.41 J/K/mol
117.16 K	53.55 ± 0.41 J/K/mol
119.61 K	54.49 ± 0.42 J/K/mol
120 K	54.48 ± 0.42 J/K/mol
122.06 K	55.51 ± 0.42 J/K/mol
124.51 K	56.3 ± 0.43 J/K/mol
126.96 K	57.27 ± 0.43 J/K/mol
129.4 K	58.21 ± 0.43 J/K/mol
130 K	58.4 ± 0.43 J/K/mol
131.85 K	59.09 ± 0.44 J/K/mol
134.29 K	59.99 ± 0.44 J/K/mol
136.73 K	60.84 ± 0.44 J/K/mol
139.17 K	61.67 ± 0.45 J/K/mol
140 K	62.1 ± 0.45 J/K/mol
141.61 K	62.6 ± 0.45 J/K/mol
144.05 K	63.49 ± 0.45 J/K/mol
146.46 K	64.31 ± 0.46 J/K/mol
148.9 K	65.12 ± 0.46 J/K/mol
150 K	65.6 ± 0.46 J/K/mol
151.33 K	65.92 ± 0.46 J/K/mol
153.76 K	66.8 ± 0.47 J/K/mol
156.18 K	67.59 ± 0.47 J/K/mol
158.61 K	68.21 ± 0.47 J/K/mol
160 K	68.93 ± 0.48 J/K/mol
161.03 K	69.15 ± 0.48 J/K/mol
163.45 K	69.96 ± 0.48 J/K/mol
165.87 K	70.75 ± 0.48 J/K/mol
168.29 K	71.39 ± 0.49 J/K/mol
170 K	72.09 ± 0.49 J/K/mol
170.7 K	72.25 ± 0.49 J/K/mol
173.11 K	73.03 ± 0.49 J/K/mol
175.52 K	73.72 ± 0.49 J/K/mol
177.92 K	74.42 ± 0.5 J/K/mol
180 K	75.12 ± 0.5 J/K/mol
180.31 K	75.07 ± 0.5 J/K/mol
182.7 K	75.83 ± 0.5 J/K/mol
185.04 K	76.53 ± 0.51 J/K/mol
187.44 K	77.24 ± 0.51 J/K/mol
189.83 K	77.9 ± 0.51 J/K/mol
190 K	78.01 ± 0.51 J/K/mol
192.21 K	78.51 ± 0.51 J/K/mol
199.36 K	80.46 ± 0.52 J/K/mol
200 K	80.78 ± 0.52 J/K/mol
202.14 K	81.27 ± 0.53 J/K/mol
205.3 K	82.08 ± 0.53 J/K/mol
208.46 K	82.89 ± 0.53 J/K/mol
210 K	83.44 ± 0.53 J/K/mol
211.61 K	83.64 ± 0.53 J/K/mol
214.75 K	84.46 ± 0.54 J/K/mol
217.89 K	85.24 ± 0.54 J/K/mol
220 K	85.98 ± 0.54 J/K/mol
220.27 K	86.55 ± 0.55 J/K/mol
223.51 K	87.38 ± 0.55 J/K/mol
226.73 K	88.15 ± 0.55 J/K/mol
229.94 K	88.77 ± 0.56 J/K/mol
230 K	88.41 ± 0.55 J/K/mol
233.13 K	89.33 ± 0.56 J/K/mol
236.34 K	89.95 ± 0.56 J/K/mol
239.53 K	90.87 ± 0.56 J/K/mol
240 K	90.75 ± 0.56 J/K/mol
242.69 K	91.56 ± 0.57 J/K/mol
245.83 K	92.05 ± 0.57 J/K/mol
248.99 K	92.61 ± 0.57 J/K/mol
250 K	92.99 ± 0.57 J/K/mol
252.14 K	93.33 ± 0.57 J/K/mol
255.28 K	94.2 ± 0.58 J/K/mol
258.37 K	94.93 ± 0.58 J/K/mol
260 K	95.13 ± 0.58 J/K/mol
261.31 K	95.4 ± 0.58 J/K/mol
264.37 K	95.93 ± 0.58 J/K/mol
267.41 K	96.5 ± 0.59 J/K/mol
270 K	97.19 ± 0.59 J/K/mol
270.48 K	97.19 ± 0.59 J/K/mol
273.52 K	97.78 ± 0.59 J/K/mol
276.54 K	98.45 ± 0.59 J/K/mol
279.55 K	99 ± 0.6 J/K/mol
280 K	99.17 ± 0.6 J/K/mol
282.53 K	99.55 ± 0.6 J/K/mol
285.49 K	100.2 ± 0.6 J/K/mol
288.42 K	100.6 ± 0.6 J/K/mol
290 K	101.1 ± 0.6 J/K/mol
291.33 K	101.2 ± 0.6 J/K/mol
294.21 K	101.7 ± 0.6 J/K/mol
297.05 K	102.3 ± 0.6 J/K/mol
299.79 K	102.8 ± 0.6 J/K/mol
300 K	102.9 ± 0.6 J/K/mol
302.76 K	103.4 ± 0.6 J/K/mol
306.59 K	104.1 ± 0.6 J/K/mol
310.93 K	105 ± 0.6 J/K/mol
315.5 K	105.8 ± 0.6 J/K/mol
320 K	106.5 ± 0.6 J/K/mol and 106.3 ± 0.6 J/K/mol
324.45 K	106.9 ± 0.6 J/K/mol
340 K	109.4 ± 0.6 J/K/mol
360 K	112.3 ± 0.7 J/K/mol
373 K	113.9 ± 0.7 J/K/mol
400 K	117.1 ± 0.7 J/K/mol
450 K	122 ± 0.7 J/K/mol
500 K	126 ± 0.7 J/K/mol
550 K	129.4 ± 0.7 J/K/mol
600 K	132.4 ± 0.7 J/K/mol
650 K	135.2 ± 0.7 J/K/mol
700 K	137.7 ± 0.8 J/K/mol
750 K	140.1 ± 0.8 J/K/mol
800 K	142.4 ± 0.8 J/K/mol
850 K	144.6 ± 0.8 J/K/mol
900 K	146.7 ± 0.8 J/K/mol
950 K	148.7 ± 0.8 J/K/mol
1000 K	150.8 ± 0.8 J/K/mol
1050 K	152.8 ± 0.8 J/K/mol
1100 K	154.7 ± 0.8 J/K/mol
1150 K	156.6 ± 0.8 J/K/mol
1200 K	158.5 ± 0.8 J/K/mol
1250 K	160.4 ± 0.8 J/K/mol
1300 K	162.3 ± 0.9 J/K/mol
1350 K	164.2 ± 0.9 J/K/mol
1400 K	166 ± 0.9 J/K/mol
1450 K	167.9 ± 0.9 J/K/mol
1500 K	169.7 ± 0.9 J/K/mol
1550 K	171.5 ± 0.9 J/K/mol
1600 K	173.4 ± 0.9 J/K/mol
